Patent US20090143419A1, “METHODS AND COMPOSITIONS FOR CONTROLLING ECTOPARASITES” (HATCHTECH PTY LTD, priority 2005, published 2009)

Key:
[1] = tested on: Plutella xylostella eggs (Waite strain); experiment: Egg hatching of Plutella xylostella
Method: The egg masses were then placed in a humid box at 25 degrees until egg hatch. Control eggs were exposed to absolute methanol as described above. At day 6 post laying the eggs were assessed from the different treatments and the percentage of egg hatch determined relative to the control as shown in Table 9.
Batches of Plutella eggs that were laid on either fine cloth or parafilm were dipped in a specific inhibitor solution for between 2-10 seconds, the excess solution was drained by blotting with dry tissue paper. The egg masses were then placed in a humid box at 25 degrees until egg hatch. Control eggs were exposed to absolute methanol as described above or not treated. At day 6 post laying the eggs were assessed from the different treatments and the percentage of egg hatch determined relative to the controls as shown in Tables 10 and 11.
Batches of Plutella eggs that were laid on fine cloth were dipped in a specific inhibitor solution for approximately 2 seconds, the excess solution was drained by blotting with dry tissue paper. The egg masses were then placed in a humid box at 25 degrees until egg hatch. Control eggs were exposed to absolute methanol as described above or not treated. At day 6 post laying the eggs were assessed from the different treatments and the percentage of egg hatch determined relative to the control as shown in Table 12.
The egg masses were then placed in a humid box at 25 degrees until egg hatch. Control eggs were exposed to absolute ethanol as described above. On day 6 post laying the eggs were assessed from the different treatments and the percentage of egg hatch determined relative to the control.

[2] = tested on: B. ovis eggs; experiment: Egg hatching in Bovicola ovis; assay type: in vivo; conditions: 10 mM, 10 eggs per replicate
Method: B. ovis eggs were collected from the wool of sheep that were infested with this parasite. The eggs were collected using forceps and with the aid of a dissecting microscope and placed in 24 well tissue culture plates in duplicate lots of 10 eggs per replicate. The eggs were then exposed to either methanol alone (solvent control) or the test compounds for either 10 minutes or 1 minute or left as untreated controls before being removed from the wells and placed into individual glass vials containing a diet at the base of the tube. The tubes were placed in plastic containers containing a salt solution (to keep humidity constant at 68%) and the containers maintained at a temperature 32° C. The eggs were monitored for hatching over the following 12 days and % hatch inhibition determined in comparison to the controls.

[3] = tested on: Helicoverpa armigera eggs (Tatura×Toowoomba strains); experiment: Egg hatching of Helicoverpa armigera; conditions: for % Inhibition: relative to control
Method: Several hundred Helicoverpa armigera eggs (Tatura×Toowoomba strains) were collected, that had been laid on fine mesh cloth over a 24 hour period.
Batches of Helicoverpa eggs were exposed to a specific inhibitor solution for between 2-10 seconds the excess solution drained by blotting with dry tissue paper. The egg masses were then placed in a humid box at 25 degrees until egg hatch. Control eggs were exposed to absolute methanol as described above.

[4] = tested on: lice eggs; experiment: Time-course in vitro lice egg hatching assay; assay type: in vivo, clothing lice (Pediculus humanus humanus); conditions: for % Inhibition of lice egg hatching (maximum over the time-course): 10 mM
[5] = tested on: Plutella xylostella eggs (Waite strain); experiment: Effect of added metal ions (FeSO4) on inhibition of Plutella xylostella egg hatching; assay type: in vivo
Method: Within 24 hours of collection the following experimental design was chosen. Batches of eggs were exposed to either 10 mM 6,6′-dimethyl-2,2′-dipyridyl or solvent only (methanol) for 2 seconds. All batches of eggs were allowed to air dry for 20 minutes at room temperature. The eggs were then given a 2 second exposure to FeSO4 at either 10, 5 or 1 mM, air dried and put in the incubator at 24° C. and allowed to hatch over the next 6 days. In addition, a positive control of 10 mM 6,6′-dimethyl-2,2′-dipyridyl was set up in which eggs were exposed to this compound for 2 seconds, air dried and placed in the incubator.
Within 24 hours of collection the following experimental design was chosen. Batches of eggs were exposed to 10 mM 5,5′dimethyl-2,2′-dipyridyl or solvent only (methanol) for 2 seconds. All batches of eggs were allowed to air dry for 20 minutes at room temperature. The eggs were then given a 2 second exposure to FeSO4 at 10, 5 or 1 mM, air dried and put in an incubator at 24° C. and allowed to hatch over the next 6 days. In addition, a positive control of 10 mM, 5,5′-dimethyl-2,2′-dipyridyl was set up in which eggs were exposed to this compound for 2 seconds, air dried and placed in the incubator.

[6] = Table 10, 1 mM, eggs laid on cloth
[7] = Table 10, 1 mM, eggs laid on cloth, relative to controls
[8] = Table 10, 10 mM, eggs laid on cloth
[9] = Table 10, 10 mM, eggs laid on cloth, relative to controls
[10] = Table 11, 1 mM, eggs laid on parafilm
[11] = Table 11, 1 mM, eggs laid on parafilm, relative to controls
[12] = Table 11, 10 mM, eggs laid on parafilm
[13] = Table 11, 10 mM, eggs laid on parafilm, relative to controls
[14] = Table 12, 0.01 mM, cloth, dipped approximately 2 seconds
[15] = Table 12, 0.1 mM, cloth, dipped approximately 2 seconds
[16] = Table 12, 1 mM, cloth, dipped approximately 2 seconds
[17] = Table 12, 10 mM, cloth, dipped approximately 2 seconds
[18] = Table 13, 0.1 mM, cloth, dipped approximately 2 seconds
[19] = Table 13, 1 mM, cloth, dipped approximately 2 seconds
[20] = Table 18, 10 mM inhibitor alone, (+ve) control
[21] = Table 18, 10 mM inhibitor followed by 2 second exposure to 1 mM FeSO4
[22] = Table 18, 10 mM inhibitor followed by 2 second exposure to 5 mM FeSO4
[23] = Table 18, 10 mM inhibitor followed by 2 second exposure to 10 mM FeSO4
[24] = Table 18, 10 mM inhibitor followed by 2 second exposure to MEOH
[25] = Table 9, 0.001 mM, dipped 2-10 seconds, day 6 post laying
[26] = Table 9, 0.01 mM, dipped 2-10 seconds, day 6 post laying
[27] = Table 9, 0.1 mM, dipped 2-10 seconds, day 6 post laying
[28] = Table 9, 1 mM, dipped 2-10 seconds, day 6 post laying
[29] = Table 9, 10 mM, dipped 2-10 seconds, day 6 post laying
[30] = Table 10, 0.01 mM, eggs laid on cloth
[31] = Table 10, 0.1 mM, eggs laid on cloth
[32] = Table 11, 0.01 mM, eggs laid on parafilm
[33] = Table 11, 0.1 mM, eggs laid on parafilm
[34] = Table 14, 1 mM, exposed 2-10 seconds, day 6 post laying
[35] = Table 14, 10 mM, exposed 2-10 seconds, day 6 post laying
[36] = Table 17, 10 mM inhibitor alone, (+ve) control
[37] = Table 17, 10 mM inhibitor followed by 2 second exposure to 1 mM FeSO4
[38] = Table 17, 10 mM inhibitor followed by 2 second exposure to 5 mM FeSO4
[39] = Table 17, 10 mM inhibitor followed by 2 second exposure to 10 mM FeSO4
[40] = Table 17, 10 mM inhibitor followed by 2 second exposure to MEOH

Cc1ccc(-c2ccc(C)cn2)nc1 [5,5′-dimethyl-2,2′-dipyridyl]
Number hatched [1, 6]: 5 | Number unhatched [1, 6]: 22 | % Inhibition [1, 7]: 78% | Number hatched [1, 8]: 0 | Number unhatched [1, 8]: 21 | % Inhibition [1, 9]: 100% | Number hatched [1, 10]: 18 | Number unhatched [1, 10]: 151 | % Inhibition [1, 11]: 88% | Number hatched [1, 12]: 0 | Number unhatched [1, 12]: 142 | % Inhibition [1, 13]: 100% | Number hatched [1, 14]: 37 | Number unhatched [1, 14]: 3 | Number hatched [1, 15]: 22 | Number unhatched [1, 15]: 16 | Number hatched [1, 16]: 1 | Number unhatched [1, 16]: 45 | Number hatched [1, 17]: 0 | Number unhatched [1, 17]: 68 | Number hatched [1, 18]: 32 | Number unhatched [1, 18]: 52 | Number hatched [1, 19]: 2 | Number unhatched [1, 19]: 118 | Number unhatched ([2]; 1 minute exposure): 10 | Number unhatched ([2]; 10 minute exposure): 10 | Number hatched ([3]; Table 15, 10 mM): 0 | Number unhatched ([3]; Table 15, 10 mM): 42 | % Inhibition of lice egg hatching (maximum over the time-course) [4]: 100% | % Inhibition [5, 20]: 100% | Number hatched [5, 20]: 0 | Number unhatched [5, 20]: 38 | Number hatched [5, 21]: 39 | Number unhatched [5, 21]: 0 | % Inhibition ([5]; Table 18, 10 mM inhibitor followed by 2 second exposure to 1 mM FeSO4, relative to the FeSO4 only controls): 0% | Number hatched [5, 22]: 25 | Number unhatched [5, 22]: 0 | % Inhibition ([5]; Table 18, 10 mM inhibitor followed by 2 second exposure to 5 mM FeSO4, relative to the FeSO4 only controls): 0% | Number hatched [5, 23]: 23 | Number unhatched [5, 23]: 2 | % Inhibition ([5]; Table 18, 10 mM inhibitor followed by 2 second exposure to 10 mM FeSO4, relative to the FeSO4 only controls): 8% | Number hatched [5, 24]: 16 | Number unhatched [5, 24]: 19

Cc1cccc(-c2cccc(C)n2)n1 [6,6′-dimethyl-2,2′-dipyridyl]
Number hatched [1, 25]: 11 | Number unhatched [1, 25]: 6 | % Inhibition ([1]; Table 9, 0.001 mM, relative to control (100% MeOH)): 0% | Number hatched [1, 26]: 13 | Number unhatched [1, 26]: 7 | % Inhibition ([1]; Table 9, 0.01 mM, relative to control (100% MeOH)): 0% | Number hatched [1, 27]: 23 | Number unhatched [1, 27]: 29 | % Inhibition ([1]; Table 9, 0.1 mM, relative to control (100% MeOH)): 0% | Number hatched [1, 28]: 0 | Number unhatched [1, 28]: 26 | % Inhibition ([1]; Table 9, 1 mM, relative to control (100% MeOH)): 100% | % Inhibition ([1]; Table 9, 1 mM, relative to control (100% MeOH), listed as 6,6′dimethyl-2,2′dipyridyl): strong ovicidal effects | Number hatched [1, 29]: 0 | Number unhatched [1, 29]: 79 | % Inhibition ([1]; Table 9, 10 mM, relative to control (100% MeOH)): 100% | % Inhibition ([1]; Table 9, 10 mM, relative to control (100% MeOH), listed as 6,6′dimethyl-2,2′dipyridyl): strong ovicidal effects | Number hatched [1, 30]: 23 | Number unhatched [1, 30]: 4 | % Inhibition ([1]; Table 10, 0.01 mM, eggs laid on cloth, relative to controls): 12% | Number hatched [1, 31]: 49 | Number unhatched [1, 31]: 49 | % Inhibition ([1]; Table 10, 0.1 mM, eggs laid on cloth, relative to controls): 0% | Number hatched [1, 6]: 0 | Number unhatched [1, 6]: 23 | % Inhibition [1, 7]: 100% | Number hatched [1, 8]: 0 | Number unhatched [1, 8]: 53 | % Inhibition [1, 9]: 100% | Number hatched [1, 32]: 92 | Number unhatched [1, 32]: 4 | % Inhibition ([1]; Table 11, 0.01 mM, eggs laid on parafilm, relative to controls): 0% | Number hatched [1, 33]: 65 | Number unhatched [1, 33]: 70 | % Inhibition ([1]; Table 11, 0.1 mM, eggs laid on parafilm, relative to controls): 7% | Number hatched [1, 10]: 0 | Number unhatched [1, 10]: 63 | % Inhibition [1, 11]: 100% | Number hatched [1, 12]: 0 | % Inhibition [1, 13]: 100% | Number unhatched ([2]; 1 minute exposure): 10 | Number unhatched ([2]; 10 minute exposure): 10 | % Inhibition ([3]; Table 14, 0.001 mM): 0% | % Inhibition ([3]; Table 14, 0.01 mM): 0% | % Inhibition ([3]; Table 14, 0.1 mM): 0% | Number hatched [3, 34]: 4 | Number unhatched [3, 34]: 140 | % Inhibition ([3]; Table 14, 1 mM): 97% | % Inhibition ([3]; Table 14, 1 mM, listed as 6,6′dimethyl-2,2′dipyridyl): significantly inhibit egg hatching | Number hatched [3, 35]: 7 | Number unhatched [3, 35]: 98 | % Inhibition ([3]; Table 14, 10 mM): 94% | % Inhibition ([3]; Table 14, 10 mM, listed as 6,6′dimethyl-2,2′dipyridyl): significantly inhibit egg hatching | Number hatched ([3]; Table 15, 0.1 mM): 70 | Number unhatched ([3]; Table 15, 0.1 mM): 0 | Number hatched ([3]; Table 15, 1 mM): 2 | Number unhatched ([3]; Table 15, 1 mM): 61 | Number hatched ([3]; Table 15, 10 mM): 3 | Number unhatched ([3]; Table 15, 10 mM): 48 | % Inhibition of lice egg hatching (maximum over the time-course) [4]: 100% | H (number of eggs successfully hatched) ([4]; Table 6, […], per replicate): 0 | Ph (number of eggs partly hatched) ([4]; Table 6, […], per replicate): 0 | lice egg hatching ([4]; in vivo): completely inhibited | % Inhibition [5, 36]: 100% | Number hatched [5, 36]: 0 | Number unhatched [5, 36]: 44 | Number hatched [5, 37]: 33 | Number unhatched [5, 37]: 1 | % Inhibition ([5]; Table 17, 10 mM inhibitor followed by 2 second exposure to 1 mM FeSO4, relative to the FeSO4 controls): 3% | Number hatched [5, 38]: 25 | Number unhatched [5, 38]: 0 | % Inhibition ([5]; Table 17, 10 mM inhibitor followed by 2 second exposure to 5 mM FeSO4, relative to the FeSO4 controls): 0% | Number hatched [5, 39]: 12 | Number unhatched [5, 39]: 19 | % Inhibition ([5]; Table 17, 10 mM inhibitor followed by 2 second exposure to 10 mM FeSO4, relative to the FeSO4 controls): 38% | Number hatched [5, 40]: 3 | Number unhatched [5, 40]: 28
